Data reported in patent US7223749B2, “Bicyclic heterocycles, pharmaceutical compositions containing these compounds, their use and processes for preparing them” (Boehringer Ingelheim International GmbH, priority 2003, dated 2007).

Target: T1, human EGF-receptor kinase (Homo sapiens, UniProt P00533)
T1 construct: GST; made in house; host or cells: Sf9 insect cells (Baculovirus)
Assay: Inhibition of human EGF-receptor kinase (cytoplasmatic tyrosine kinase domain, GST fusion protein, pEY substrate, ELISA readout)
Assay type: biochemical
Settings: cytoplasmatic tyrosine kinase domain (Met 664 to Ala 1186) as GST fusion protein; poly(EY)/bio-pEY substrate; 30 minutes at ambient temperature
Procedure: The inhibition of human EGF-receptor kinase was determined using the cytoplasmatic tyrosine kinase domain (methionine 664 to alanine 1186, based on the sequence published in Nature 309 (1984), 418). To do this, the protein was expressed in Sf9 insect cells as a GST fusion protein using the Baculovirus expression system.
The enzyme activity was measured in the presence or absence of the test compounds in serial dilutions. The polymer pEY (4:1) produced by SIGMA was used as the substrate. Biotinylated pEY (bio-pEY) was added as the tracer substrate. Every 100 μl of reaction solution contained 10 μl of the inhibitor in 50% DMSO, 20 μl of the substrate solution (200 mM HEPES pH 7.4, 50 mM magnesium acetate, 2.5 mg/ml of poly(EY), 5 μg/ml of bio-pEY) and 20 μl of enzyme preparation. The enzyme reaction was started by the addition of 50 μl of a 100 μM ATP solution in 10 mM magnesium chloride. The dilution of the enzyme preparation was adjusted so that the incorporation of phosphate into the bio-pEY was linear in terms of time and quantity of enzyme. […]
The enzyme assays were carried out at ambient temperature over a period of 30 minutes and were ended by the addition of 50 μl of a stopping solution (250 mM EDTA in 20 mM HEPES pH 7.4). […] The extinction was measured at OD450 nm with an ELISA reader. All data points were measured three times. […]

T1 sequence (P00533 688-1210): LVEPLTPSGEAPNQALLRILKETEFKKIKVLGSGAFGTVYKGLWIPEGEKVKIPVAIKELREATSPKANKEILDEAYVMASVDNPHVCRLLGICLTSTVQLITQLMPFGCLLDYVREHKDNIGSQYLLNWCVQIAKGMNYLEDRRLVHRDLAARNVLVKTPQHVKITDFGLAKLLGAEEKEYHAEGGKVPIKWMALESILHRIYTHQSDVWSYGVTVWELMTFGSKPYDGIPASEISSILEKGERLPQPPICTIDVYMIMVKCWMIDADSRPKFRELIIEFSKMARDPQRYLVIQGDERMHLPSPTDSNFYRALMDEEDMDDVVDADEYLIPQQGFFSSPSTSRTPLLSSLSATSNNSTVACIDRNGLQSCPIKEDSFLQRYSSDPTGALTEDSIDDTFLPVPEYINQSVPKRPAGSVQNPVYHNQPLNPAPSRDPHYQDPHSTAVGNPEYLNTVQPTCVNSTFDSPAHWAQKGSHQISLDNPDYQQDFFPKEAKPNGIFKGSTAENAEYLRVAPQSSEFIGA

- IC50: 1.5 nM
Structure (SMILES): O=C(/C=C/CN1CCCOCC1)Nc1cc2c(Nc3ccc(F)c(Cl)c3)ncnc2cc1O[C@H]1CCOC1 [Example 1, 4-[(3-chloro-4-fluoro-phenyl)amino]-6-{[4-(homomorpholin-4-yl)-1-oxo-2-buten-1-yl]amino}-7-[(S)-(tetrahydrofuran-3-yl)oxy]-quinazoline]
